From US7632972B2, “Compounds and methods for treatment of cancer and modulation of programmed cell death for melanoma and other cancer cells” (The Board of Trustees of the University of Illionis, priority 2003, dated 2009)

Key:
Type in all cases: cell-based, human
PC-3 = assay: NCI 60 cell line screen (SRB), Prostate Cancer
From the text: (§1) The operation of this screen utilizes 60 different human tumor cell lines, representing leukemia, melanoma and cancers of the lung, colon, brain, ovary, breast, prostate, and kidney. The aim is to prioritize for further evaluation, synthetic compounds or natural product samples showing selective growth inhibition or cell killing of particular tumor cell lines. This screen is unique in that the complexity of a 60 cell line dose response produced by a given compound results in a biological response pattern which can be utilized in pattern recognition algorithms. Using these algorithms, it is possible to assign a putative mechanism of action to a test compound, or to determine that the response pattern is unique and not similar to that of any of the standard prototype compounds included in the NCl database (see DTP Overview tab). In addition, following characterization of various cellular molecular targets in the 60 cell lines, it may be possible to select compounds most likely to interact with a specific molecular target.
(§2) The human tumor cell lines of the cancer screening panel are grown in RPMI 1640 medium containing 5% fetal bovine serum and 2 mM L-glutamine. For a typical screening experiment, cells are inoculated into 96 well microtiter plates in 100 μL at plating densities ranging from 5,000 to 40,000 cells/well depending on the doubling time of individual cell lines. After cell inoculation, the microtiter plates are incubated at 37° C., 5% CO2, 95% air and 100% relative humidity for 24 h prior to addition of experimental drugs.
(§3) After 24 h, two plates of each cell line are fixed in situ with TCA, to represent a measurement of the cell population for each cell line at the time of drug addition (Tz). Experimental drugs are solubilized in dimethyl sulfoxide at 400-fold the desired final maximum test concentration and stored frozen prior to use. At the time of drug addition, an aliquot of frozen concentrate is thawed and diluted to twice the desired final maximum test concentration with complete medium containing 50 μg/ml gentamicin. Additional four, 10-fold or ½ log serial dilutions are made to provide a total of five drug concentrations plus control. Aliquots of 100 μl of these different drug dilutions are added to the appropriate microtiter wells already containing 100 μl of medium, resulting in the required final drug concentrations.
(§4) Following drug addition, the plates are incubated for an additional 48 h at 37° C., 5% CO2, 95% air, and 100% relative humidity. For adherent cells, the assay is terminated by the addition of cold TCA. Cells are fixed in situ by the gentle addition of 50 μl of cold 50% (w/v) TCA (final concentration, 10% TCA) and incubated for 60 minutes at 4° C. The supernatant is discarded, and the plates are washed five times with tap water and air dried. Sulforhodamine B (SRB) solution (100 μl) at 0.4% (w/v) in 1% acetic acid is added to each well, and plates are incubated for 10 minutes at room temperature. After staining, unbound dye is removed by washing five times with 1% acetic acid and the plates are air dried. Bound stain is subsequently solubilized with 10 mM trizma base, and the absorbance is read on an automated plate reader at a wavelength of 515 nm. For suspension cells, the methodology is the same except that the assay is terminated by fixing settled cells at the bottom of the wells by gently adding 50 μl of 80% TCA (final concentration, 16% TCA). Using the seven absorbance measurements [time zero, (Tz), control growth, (C), and test growth in the presence of drug at the five concentration levels (Ti)], the percentage growth is calculated at each of the drug concentrations levels. Percentage growth inhibition is calculated as: [(Ti−Tz)/(C−Tz)]×100 for concentrations for which Ti>/=Tz [(Ti−Tz)/Tz]×100 for concentrations for which Ti<Tz.
(§5) Three dose response parameters are calculated for each experimental agent. […]

DU-145 = assay: NCI 60 cell line screen (SRB), Prostate Cancer
From the text: as §1, §2, §3, §4, §5

NCI/ADR-RES = assay: NCI 60 cell line screen (SRB), Breast Cancer
From the text: as §1, §2, §3, §4, §5

COLO 205 = assay: NCI 60 cell line screen (SRB), Colon Cancer
From the text: as §1, §2, §3, §4, §5

HCT-116 = assay: NCI 60 cell line screen (SRB), Colon Cancer
From the text: as §1, §2, §3, §4, §5

HCT-15 = assay: NCI 60 cell line screen (SRB), Colon Cancer
From the text: as §1, §2, §3, §4, §5

SW-620 = assay: NCI 60 cell line screen (SRB), Colon Cancer
From the text: as §1, §2, §3, §4, §5

KM12 = assay: NCI 60 cell line screen (SRB), Colon Cancer
From the text: as §1, §2, §3, §4, §5

786-0 = assay: NCI 60 cell line screen (SRB), Renal Cancer
From the text: as §1, §2, §3, §4, §5

SMILES: COc1cccc(CCNC(=O)CC(c2ccccc2)(c2ccccc2)c2ccccc2)c1 [Compound Z3]
- GI50 (PC-3; PC-3): 6.12 µM
- TGI (PC-3; PC-3): >1.00E−04
- Percent Growth (PC-3; PC-3, Log10 Concentration −4.0): 12%
- Percent Growth (PC-3; PC-3, Log10 Concentration −5.0): 39%
- Percent Growth (PC-3; PC-3, Log10 Concentration −6.0): 90%
- Percent Growth (PC-3; PC-3, Log10 Concentration −7.0): 96%
- Percent Growth (PC-3; PC-3, Log10 Concentration −8.0): 100%
- CC50 (PC-3; PC-3, read-out: LC50 (the source's name)): > 100 µM
- GI50 (DU-145; DU-145): 26.8 µM
- TGI (DU-145; DU-145): >1.00E−04
- Percent Growth (DU-145; DU-145, Log10 Concentration −4.0): 31%
- Percent Growth (DU-145; DU-145, Log10 Concentration −5.0): 64%
- Percent Growth (DU-145; DU-145, Log10 Concentration −6.0): 88%
- Percent Growth (DU-145; DU-145, Log10 Concentration −7.0): 93%
- Percent Growth (DU-145; DU-145, Log10 Concentration −8.0): 88%
- CC50 (DU-145; DU-145, read-out: LC50 (the source's name)): > 100 µM
- GI50 (NCI/ADR-RES): 5.26 µM
- TGI (NCI/ADR-RES): >1.00E−04
- Percent Growth (NCI/ADR-RES; Log10 Concentration −4.0): 27%
- Percent Growth (NCI/ADR-RES; Log10 Concentration −5.0): 42%
- Percent Growth (NCI/ADR-RES; Log10 Concentration −6.0): 69%
- Percent Growth (NCI/ADR-RES; Log10 Concentration −7.0): 93%
- Percent Growth (NCI/ADR-RES; Log10 Concentration −8.0): 69%
- CC50 (NCI/ADR-RES; read-out: LC50 (the source's name)): > 100 µM
- GI50 (COLO 205; COLO 205): 12.8 µM
- TGI (COLO 205; COLO 205): >1.00E−04
- Percent Growth (COLO 205; COLO 205, Log10 Concentration −4.0): 27%
- Percent Growth (COLO 205; COLO 205, Log10 Concentration −5.0): 53%
- Percent Growth (COLO 205; COLO 205, Log10 Concentration −6.0): 106%
- Percent Growth (COLO 205; COLO 205, Log10 Concentration −7.0): 117%
- Percent Growth (COLO 205; COLO 205, Log10 Concentration −8.0): 99%
- CC50 (COLO 205; COLO 205, read-out: LC50 (the source's name)): > 100 µM
- GI50 (HCT-116; HCT-116): 2.58 µM
- TGI (HCT-116; HCT-116): 2.67E−05
- Percent Growth (HCT-116; HCT-116, Log10 Concentration −4.0): −22%
- Percent Growth (HCT-116; HCT-116, Log10 Concentration −5.0): 16%
- Percent Growth (HCT-116; HCT-116, Log10 Concentration −6.0): 74%
- Percent Growth (HCT-116; HCT-116, Log10 Concentration −7.0): 91%
- Percent Growth (HCT-116; HCT-116, Log10 Concentration −8.0): 97%
- CC50 (HCT-116; HCT-116, read-out: LC50 (the source's name)): > 100 µM
- GI50 (HCT-15; HCT-15): > 100 µM
- TGI (HCT-15; HCT-15): >1.00E−04
- Percent Growth (HCT-15; HCT-15, Log10 Concentration −4.0): 57%
- Percent Growth (HCT-15; HCT-15, Log10 Concentration −5.0): 62%
- Percent Growth (HCT-15; HCT-15, Log10 Concentration −6.0): 86%
- Percent Growth (HCT-15; HCT-15, Log10 Concentration −7.0): 99%
- Percent Growth (HCT-15; HCT-15, Log10 Concentration −8.0): 103%
- CC50 (HCT-15; HCT-15, read-out: LC50 (the source's name)): > 100 µM
- GI50 (SW-620; SW-620): 85.2 µM
- TGI (SW-620; SW-620): >1.00E−04
- Percent Growth (SW-620; SW-620, Log10 Concentration −4.0): 49%
- Percent Growth (SW-620; SW-620, Log10 Concentration −5.0): 64%
- Percent Growth (SW-620; SW-620, Log10 Concentration −6.0): 97%
- Percent Growth (SW-620; SW-620, Log10 Concentration −7.0): 105%
- Percent Growth (SW-620; SW-620, Log10 Concentration −8.0): 95%
- CC50 (SW-620; SW-620, read-out: LC50 (the source's name)): > 100 µM
- GI50 (KM12; KM12): 4.75 µM
- TGI (KM12; KM12): >1.00E−04
- Percent Growth (KM12; KM12, Log10 Concentration −4.0): 14%
- Percent Growth (KM12; KM12, Log10 Concentration −5.0): 25%
- Percent Growth (KM12; KM12, Log10 Concentration −6.0): 101%
- Percent Growth (KM12; KM12, Log10 Concentration −7.0): 107%
- Percent Growth (KM12; KM12, Log10 Concentration −8.0): 111%
- CC50 (KM12; KM12, read-out: LC50 (the source's name)): > 100 µM
- GI50 (786-0; 786-0): 10.6 µM
- TGI (786-0; 786-0): >1.00E−04
- Percent Growth (786-0; 786-0, Log10 Concentration −4.0): 7%
- Percent Growth (786-0; 786-0, Log10 Concentration −5.0): 51%
- Percent Growth (786-0; 786-0, Log10 Concentration −6.0): 86%
- Percent Growth (786-0; 786-0, Log10 Concentration −7.0): 98%
- Percent Growth (786-0; 786-0, Log10 Concentration −8.0): 86%
- CC50 (786-0; 786-0, read-out: LC50 (the source's name)): > 100 µM
